From patent publication US11744819B2, “Antibiotic cannabinoid-terpene formulations” (priority 2019, dated 2023)
Converted amounts (≈) assume the structure as drawn. “And” between values parts separate entries of the source, which are not always exact repeats. Equal entries are not always repeated. Where two headings read alike, the source gives them in different places.

Tests used:
E. faecium VRE 55A6 = assay: microbe, parasite or virus in culture; type: cell-based, Enterococcus faecium; conditions: for MIC Alone / MIC: compound alone in checkerboard; for MIC: Enterococcus faecium, VRE, read-out: MIC Alone, E. faecium VRE 55A6
Description: In therapeutic applications, synergy between active ingredients occurs when an observed combined therapeutic effect is greater than the sum of therapeutic effects of individual active ingredients, or a new therapeutic effect is produced that the active ingredients could not produce alone. […] In this context, the enhancement of therapeutic effect may take the form of increased efficacy or potency and/or decreased adverse effects. The synergistic effect may be mediated in whole or in part by the pharmacokinetics and/or pharmacodynamics of the active ingredients in a subject, so that the amount and proportion of the ingredients in the formulation may be synergistic in vivo. This in vivo synergy may be effected with a formulation that includes the active ingredients in amounts and proportions that are also synergistic in in vitro assays of efficacy. As used herein, the term “synergistically effective amounts” accordingly refers to amounts that are synergistic in vivo and/or in vitro. A numeric quantification of synergy is often expressed as a fractional inhibitory concentration index (FICI), which represents the sum of the fractional inhibitory concentrations (FICs) of each drug tested, where the FIC is determined for each drug by dividing the minimum inhibitory concentration (MIC, the lowest concentration of the drug which prevents visible growth of the bacterium in a standard in vitro assay-standard colorometric assay based on resazurin) of each drug when used in combination by the MIC of each drug when used alone. In very general terms, a FICI lower or higher than 1 indicates positively correlated activity (at least additive or potentiation) or an absence of positive interactions, respectively. More definitively, synergy of two compounds may be conservatively defined as a FICI of ::::0.5 (see Odds, 2003; with additivity or potentiation corresponding to a FICI of >0.5 to ::::0.75; no interaction (indifference) corresponding to a FICI of >1 to ::::4; and antagonism corresponding to a FICI of >>4). […] (Berenbaum, 1978; Yu et al., 1980). To estimate the optimal concentrations in triple combinations, the optimal concentrations of trans-caryophyllene and cannabinoid were utilized in combination with a series of daptomycin dilutions.
Pre-cultures of bacteria growing in their corresponding liquid media (defined below) were diluted to an 00600 of 0.0025 and 100 μl was added to 100 μl of medium containing serial 2-fold dilutions of cannabinoid (cannabinoid stocks, in methanol or acetonitrile for acidic forms, were diluted in growth medium) in 96-well plates. Plates were then incubated for 20-24 h at 37° C., and growth was recorded as 00600 in a Thermo Scientific™ Varioskan™ Flash Multimode Reader.
FICI values was determined in a 96 well checkerboard format using the MIC assay for cannabinoids (compound A), terpenes (compound B), and daptomycin (compound C) alone and in combinations. Terpene stocks were prepared in DMSO and diluted in the growth medium. The fractional inhibitory concentration for each compound was calculated as follows: FICA=(MIC of compound A in the presence of compound B)/(MIC of compound A alone). Similarly, the FICs for compounds Band C were calculated. The FICI was calculated as FICA plus FICs plus FICc.

[1] = system: E. faecium clinical isolate 58C9 (vancomycin and daptomycin resistant); conditions: for Fold reduction in daptomycin MIC in combination with the cannabinoid: E. faecium isolate 58c9; for MIC: clinical enterococcal strain 58C9, vancomycin and daptomycin resistant
[2] = system: biofilms of E. faecium strain 3303; assay: Biofilm treatment (crystal violet mass, viable bacteria); type: cell-based, Enterococcus faecium; conditions: 48 h biofilms of strain 3303 treated 72 h; FIG. 4
Description: The data in FIG. 4 was generated by growing biofilms of E. faecium strain 3303 for 48 h without cannabinoids, then treating the biofilms with cannabinoids for 72 h. The mass of the biofilm was quantitated by crystal violet staining. Viable bacteria in the biofilm were quantitated by scrapping biofilm then counting the viable bacteria. As illustrated, CBO and CBG illustrate a surprising degree of antibiotic activity against the strain 3303 of E. faecium. Of note, CBC was bactericidal against planktonic Enterococci.

enterococci = conditions: MIC 4 mg/L; 6 mg/kg doses; enterococcal bacteremia; cited from earlier work
[3] = E. faecium VRE 55A6, pairwise, with daptomycin
[4] = E. faecium VRE 55A6, pairwise, with trans-caryophyllene
[5] = E. faecium VRE 55A6, triple, with daptomycin and trans-caryophyllene
[6] = E. faecium VRE 55A6, pairwise, with CBC
[7] = E. faecium VRE 55A6, pairwise, with CBD
[8] = E. faecium VRE 55A6, pairwise, with CBG
[9] = E. faecium VRE 55A6, text b61, Table 7D
[10] = E. faecium VRE 55A6, triple, with CBC and trans-caryophyllene
[11] = E. faecium VRE 55A6, triple, with CBD and trans-caryophyllene
[12] = E. faecium VRE 55A6, triple, with CBG and trans-caryophyllene

Structure (SMILES) | MIC Alone (E. faecium VRE 55A6; E. faecium VRE 55A6) | MIC In combination (E. faecium VRE 55A6; [3]) | Max. fold change in MIC (E. faecium VRE 55A6; [3]) | MIC In combination (E. faecium VRE 55A6; [4]) | Max. fold change in MIC (E. faecium VRE 55A6; [4]) | MIC In combination (E. faecium VRE 55A6; [5]) | Max. fold change in MIC (E. faecium VRE 55A6; [5]) | MIC (E. faecium VRE 55A6) | Fold reduction in daptomycin MIC in combination with the cannabinoid [1] | inhibition of E. faecium biofilm growth [2] | further results
CCCCCc1cc(O)c2c(c1)OC(C)(CCC=C(C)C)C=C2 (stereo not shown) [CBC, cannabichromene] | 1 µg/mL | 0.25 µg/mL | 8 fold | 0.5 µg/mL | 2 fold | 0.25 µg/mL | 8 fold | 2 µg/mL | 8 Fold | – | –
C=C(C)[C@@H]1CCC(C)=C[C@H]1c1c(O)cc(CCCCC)cc1O [CBD, cannabidiol, reference compound] | 2 µg/mL | 0.5 µg/mL | – | 1 µg/mL | – | 0.5 µg/mL | – | 4 µg/mL | – | surprisingly effective at inhibiting E. faecium biofilm growth | –
CCCCCc1cc(O)c(C/C=C(\C)CCC=C(C)C)c(O)c1 [CBG, cannabigerol] | 2 µg/mL | 2 µg/mL | 2 fold | 2 µg/mL | none | 0.5 µg/mL | 4 fold | 4 µg/mL | 64 Fold | surprisingly effective at inhibiting E. faecium biofilm growth | –
CCCCCCCCCC(=O)N[C@@H](Cc1c[nH]c2ccccc12)C(=O)N[C@H](CC(N)=O)C(=O)N[C@@H](CC(=O)O)C(=O)N[C@@H]1C(=O)NCC(=O)N[C@@H](CCCN)C(=O)N[C@@H](CC(=O)O)C(=O)N[C@H](C)C(=O)N[C@@H](CC(=O)O)C(=O)NCC(=O)N[C@H](CO)C(=O)N[C@@H]([C@H](C)CC(=O)O)C(=O)N[C@@H](CC(=O)c2ccccc2N)C(=O)O[C@@H]1C [Daptomycin, daptomycin, reference compound] | 16 µg/mL and >16 µg/mL | – | – | 8 µg/mL | 2 fold | – | – | – | – | – | MIC In combination (E. faecium VRE 55A6; [6]): 0.031 µg/mL; Max. fold change in MIC (E. faecium VRE 55A6; [6]): 512 fold; MIC In combination (E. faecium VRE 55A6; [7]): 1 µg/mL; Max. fold change in MIC (E. faecium VRE 55A6; [7]): 16 fold; MIC In combination (E. faecium VRE 55A6; [8]): 4 µg/mL; Max. fold change in MIC (E. faecium VRE 55A6; [8]): 4 fold; MIC of daptomycin (alone) (E. faecium VRE 55A6; [9]): > 16 µg/mL; MIC of daptomycin in the presence of CBC and trans caryophyllene (E. faecium VRE 55A6; [9]): 0.03 µg/mL; MIC In combination (E. faecium VRE 55A6; [10]): 0.03 µg/mL; Max. fold change in MIC (E. faecium VRE 55A6; [10]): >512 fold; Max. fold change in MIC (E. faecium VRE 55A6; E. faecium VRE 55A6, triple, with CBC and trans-caryophyllene, listed as daptomycin): > 512 fold; MIC In combination (E. faecium VRE 55A6; [11]): 2 µg/mL; Max. fold change in MIC (E. faecium VRE 55A6; [11]): >8 fold; MIC In combination (E. faecium VRE 55A6; [12]): 2 µg/mL; Max. fold change in MIC (E. faecium VRE 55A6; [12]): >8 fold; MIC [1]: 8 µg/mL (≈ 4.94 µM); MIC ([1]; listed as daptomycin): 4 µg/mL (≈ 2.47 µM); probability of attaining target pharmacokinetic parameters (enterococci): 1.5-5.5%
